Values of other authors, collected in patent publication US10986851B2, “Control of pathogenic bacteria in foods” (priority 2018, dated 2021).

Experiments:
[1] = test system: Salmonella; conditions: postchill decontamination tank, ground poultry parts; 0.07 and 0.1% PAA evaluated
[2] = test system: Salmonella; conditions: suspension in 0.1% peptone water
[3] = test system: Salmonella; conditions: ground chicken containing 9.8% fat, refrigerated storage, 200 ppm

Row | Compound | reduction of Salmonella [1] | inhibitory effect against Salmonella [2] | effect on growth of Salmonella [3]
1 | CC(=O)OO [PAA, peracetic acid] | effective for the reduction of Salmonella | – | –
2 | CCCCCCCCCCCC(=O)N[C@@H](CCCN=C(N)N)C(=O)OCC [LAE, lauric arginate] | – | strong inhibitory (P<0.05) effect | no inhibitory (P>0.05) effect
